Experiment [1] addresses intracellular GCN2 (phosphorylation of the GCN2 substrate eIF2α) (Homo sapiens (Human), UniProt Q9P2K8). As to the kind of experiment: GCN2 Cellular Inhibition Assay (AlphaScreen SureFire P-eIF2α Ser51, borrelidin-treated U2OS cells). Conditions: 10 μM borrelidin, 1 h, phosphorylated eIF2α Ser51, read-out: GCN2 Biomarker (IC50). Format: cell-based. The method, boiled down:
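U2OS cells adhered overnight, then given compound (top 40 μM, 4-fold serial dilutions) plus 10 μM borrelidin for 1 h at 37 °C. Lysates assayed for eIF2α phospho-Ser51 by AlphaScreen SureFire; % inhibition versus borrelidin-only wells.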

The next experiment concerns the target GCN2 kinase (Homo sapiens (Human), UniProt Q9P2K8). As to the kind of experiment: GCN2 Enzyme Inhibition Assay (Transcreener ADP2 fluorescence polarization). Type of experiment: biochemical. Conditions: 280 μM ATP, 200 μM (RS)7 peptide, 4 nM GCN2, 25° C.; for Ki: Ki(app). The method, boiled down:
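Transcreener ADP2 fluorescence polarization detection of ADP from 4 nM GCN2 with (RS)7 substrate in 25 mM Tris-HCl pH 7.5, 50 mM NaCl, 10 mM MgCl2, 1 mM DTT. Compound pre-incubated with enzyme 10 min at 25 °C; reaction started by ATP, run 1 h at 25 °C. IC50 and Ki(app) by tight-binding fit.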
On the technique in general: In fluorescence polarisation assays a small probe gives low polarisation when free and higher when bound to something large.

The structures appear in SMILES notation.

Drawing on patent US10793563B2, “GCN2 inhibitors and uses thereof” (Merck Patent GmbH, priority 2018, dated 2020), this text covers IC50 and Ki for 26 compounds.

In general, IC50 refers to the concentration that inhibits the measured activity by half.

Chain of GCN2 kinase (Q9P2K8 whole entry): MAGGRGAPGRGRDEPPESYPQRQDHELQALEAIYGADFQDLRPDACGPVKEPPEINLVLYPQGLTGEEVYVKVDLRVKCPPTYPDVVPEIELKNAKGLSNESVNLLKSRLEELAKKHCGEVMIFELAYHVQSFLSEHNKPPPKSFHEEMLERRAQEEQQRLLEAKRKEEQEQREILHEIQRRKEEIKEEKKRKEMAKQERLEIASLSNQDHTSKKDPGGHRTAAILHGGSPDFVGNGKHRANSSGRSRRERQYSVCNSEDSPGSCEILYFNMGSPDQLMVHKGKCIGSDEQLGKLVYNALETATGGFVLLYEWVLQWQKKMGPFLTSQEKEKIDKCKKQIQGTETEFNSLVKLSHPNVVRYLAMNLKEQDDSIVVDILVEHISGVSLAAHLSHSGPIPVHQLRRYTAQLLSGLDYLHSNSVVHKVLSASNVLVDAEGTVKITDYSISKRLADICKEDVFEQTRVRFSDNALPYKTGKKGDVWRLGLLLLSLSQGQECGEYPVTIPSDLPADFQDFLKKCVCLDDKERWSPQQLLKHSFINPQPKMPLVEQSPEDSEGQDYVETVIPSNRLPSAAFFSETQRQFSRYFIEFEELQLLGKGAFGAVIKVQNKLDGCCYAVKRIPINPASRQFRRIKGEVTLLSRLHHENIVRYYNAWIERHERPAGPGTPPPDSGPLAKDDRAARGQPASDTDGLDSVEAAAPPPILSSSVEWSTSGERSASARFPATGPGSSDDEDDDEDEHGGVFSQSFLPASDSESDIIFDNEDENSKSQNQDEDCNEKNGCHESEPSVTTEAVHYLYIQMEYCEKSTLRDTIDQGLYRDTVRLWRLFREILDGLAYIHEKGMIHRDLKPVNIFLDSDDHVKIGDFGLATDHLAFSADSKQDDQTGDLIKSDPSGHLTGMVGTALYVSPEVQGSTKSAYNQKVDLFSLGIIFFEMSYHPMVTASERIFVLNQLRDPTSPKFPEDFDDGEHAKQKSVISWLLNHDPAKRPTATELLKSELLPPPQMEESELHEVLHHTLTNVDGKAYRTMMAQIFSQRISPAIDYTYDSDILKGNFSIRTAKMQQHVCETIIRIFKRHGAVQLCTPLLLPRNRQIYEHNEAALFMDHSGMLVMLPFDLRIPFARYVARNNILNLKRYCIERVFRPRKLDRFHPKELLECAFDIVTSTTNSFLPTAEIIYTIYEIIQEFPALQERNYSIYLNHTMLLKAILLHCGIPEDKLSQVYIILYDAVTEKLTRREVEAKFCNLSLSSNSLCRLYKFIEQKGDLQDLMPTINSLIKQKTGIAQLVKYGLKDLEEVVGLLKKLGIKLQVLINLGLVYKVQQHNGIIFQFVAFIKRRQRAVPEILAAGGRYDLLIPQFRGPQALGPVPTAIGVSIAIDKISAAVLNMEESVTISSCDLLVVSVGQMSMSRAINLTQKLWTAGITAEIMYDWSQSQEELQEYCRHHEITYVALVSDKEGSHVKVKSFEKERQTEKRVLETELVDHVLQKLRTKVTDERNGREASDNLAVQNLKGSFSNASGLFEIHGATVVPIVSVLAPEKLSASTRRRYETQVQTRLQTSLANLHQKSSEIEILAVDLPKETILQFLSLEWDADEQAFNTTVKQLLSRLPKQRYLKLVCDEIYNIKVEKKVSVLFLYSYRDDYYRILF
Chain of intracellular GCN2 (phosphorylation of the GCN2 substrate eIF2α) (Q9P2K8 whole entry): as above

Regarding `FC(F)(F)c1ccc2ncc(-c3ccnc(N4CCN(C[C@@H]5CCCOC5)[C@H](c5cn[nH]c5)C4)n3)n2c1` [I-544, 3-(2-((R)-3-(1H-pyrazol-4-yl)-4-(((S)-tetrahydro-2H-pyran-3-yl)methyl)piperazin-1-yl)pyrimidin-4-yl)-6-(trifluoromethyl)imidazo[1,2-a]pyridine], the IC50 was under 500 nM in experiment [1] and under 10 nM against GCN2 kinase.
For the compound `O[C@@H]1C[C@H](O)CN(c2ccnc(-c3cnc4ccc(C(F)(F)F)cn34)n2)C1` [I-238, (3R,5S)-1-(2-(6-(trifluoromethyl)imidazo[1,2-a]pyridin-3-yl)pyrimidin-4-yl)piperidine-3,5-diol], the IC50 in experiment [1] fell in the range of 500 to 5000 nM; at GCN2 kinase, 10 to 100 nM.
The like results for `C[C@@H]1[C@H](c2cn[nH]c2)NCCN1c1ccnc(-c2cnc3ccc(C(F)(F)F)cn23)n1` [I-537, 4-[(2R,3 S)-2-methyl-3-(1H-pyrazol-4-yl)piperazin-1-yl]-2-[6-(trifluoromethyl)imidazo[1,2-a]pyridin-3-yl]pyrimidine] were, in that order, under 500 nM and under 10 nM.
The corresponding values for `O=C(C1CC1(F)F)N1CCN(c2ccnc(-c3cnc4ccc(C(F)(F)F)cn34)n2)CC1c1cn[nH]c1` (stereo not shown) [I-400, (2-(1H-pyrazol-4-yl)-4-(2-(6-(trifluoromethyl)imidazo[1,2-a]pyridin-3-yl)pyrimidin-4-yl)piperazin-1-yl)(2,2-difluorocyclopropyl)methanone] are 500 to 5000 nM and 10 to 100 nM.
The corresponding values for `Cc1[nH]ncc1[C@H]1CN(c2ccnc(-c3cnc4ccc(C(F)(F)F)cn34)n2)C[C@H](C)O1` [I-147, (2 S,6 S)-2-methyl-6-(5-methyl-1H-pyrazol-4-yl)-4-(2-(6-(trifluoromethyl)imidazo[1,2-a]pyridin-3-yl)pyrimidin-4-yl)morpholine] are under 500 nM and 10 to 100 nM.
Turning to `C[C@@H]1C[C@H](N=S(C)(C)=O)CN(c2ccnc(-c3cnc4ccc(C(F)F)cn34)n2)C1` [I-340, (((3 S, 5R)-1-(2-(6-(difluoromethyl)imidazo[1,2-a]pyridin-3-yl)pyrimidin-4-yl)-5-methylpiperidin-3-yl)imino)dimethyl-λ6-sulfanone], the half-maximal inhibitory concentration (IC50) in experiment [1] was under 500 nM; at GCN2 kinase, under 10 nM.
As to `Cc1cnc(N2C[C@@H](C)C[C@@H](c3cn[nH]c3)C2)nc1-c1cnc2ccc(Cl)cn12` [I-186, 6-chloro-3-(5-methyl-2-((3S,5S)-3-methyl-5-(1H-pyrazol-4-yl)piperidin-1-yl)pyrimidin-4-yl)imidazo[1,2-a]pyridine], the IC50 in experiment [1] is under 500 nM; at GCN2 kinase it was under 10 nM.
`FC(F)(F)c1ccc2ncc(-c3ccnc(N4CCN(C[C@@H]5CCCOC5)[C@@H](c5cn[nH]c5)C4)n3)n2c1` [I-546, 3-(2-((S)-3-(1H-pyrazol-4-yl)-4-(((S)-tetrahydro-2H-pyran-3-yl)methyl)piperazin-1-yl)pyrimidin-4-yl)-6-(trifluoromethyl)imidazo[1,2-a]pyridine]: the concentration for half-maximal inhibition (IC50) was under 500 nM in experiment [1] and under 10 nM against GCN2 kinase.
For the compound `C[C@H]1CN(c2nccc(-c3cnc4ccc(C(F)(F)F)cn34)n2)CC(c2cc[nH]n2)O1` (stereo in doubt) [I-138, (2S,6R)-2-methyl-6-(1H-pyrazol-3-yl)-4-(4-(6-(trifluoromethyl)imidazo[1,2-a]pyridin-3-yl)pyrimidin-2-yl)morpholine], the IC50 in experiment [1] was under 500 nM; on GCN2 kinase it was 10 to 100 nM.
The like results for `Cc1[nH]ncc1[C@@H]1[C@H](C)N(c2ccnc(-c3cnc4ccc(C(F)(F)F)cn34)n2)CCN1C1COC1` [I-365] were, in that order, 500 to 5000 nM and 100 to 1000 nM.
Regarding `COCCn1cc([C@@H]2C[C@@H](C)CN(c3nccc(-c4cnc5ccc(C(F)(F)F)cn45)n3)C2)cn1` [I-145, 3-(2-((3S,5R)-3-(1-(2-methoxyethyl)-1H-pyrazol-4-yl)-5-methylpiperidin-1-yl)pyrimidin-4-yl)-6-(trifluoromethyl)imidazo[1,2-a]pyridine], the IC50 in experiment [1] is under 500 nM; on GCN2 kinase, 100 to 1000 nM.
`O=C(C1CC(F)(F)C1)N1CCN(c2ccnc(-c3cnc4ccc(C(F)(F)F)cn34)n2)CC1c1cn[nH]c1` (stereo not shown) [I-402, (2-(1H-pyrazol-4-yl)-4-(2-(6-(trifluoromethyl)imidazo[1,2-a]pyridin-3-yl)pyrimidin-4-yl)piperazin-1-yl)(3,3-difluorocyclobutyl)methanone]: the IC50 in experiment [1] lay within 500 to 5000 nM; against GCN2 kinase, 100 to 1000 nM.
For the compound `CC1(CN2CCN(c3ccnc(-c4cnc5ccc(C(F)(F)F)cn45)n3)CC2c2cn[nH]c2)CC1` (stereo not shown) [I-510, 3-(4-(4-((1-methylcyclopropyl)methyl)-3-(1H-pyrazol-4-yl)piperazin-1-yl)pyrimidin-2-yl)-6-(trifluoromethyl)imidazo[1,2-a]pyridine], the half-inhibitory concentration (IC50) in experiment [1] is under 500 nM; on GCN2 kinase, under 10 nM.
Consider `Cc1cc(-c2cnc3ccc(Cl)cn23)nc(N2C[C@@H](c3c[nH]nc3C)O[C@@H](C)C2)n1` [I-221, (2S,6R)-4-(4-(6-chloroimidazo[1,2-a]pyridin-3-yl)-6-methylpyrimidin-2-yl)-2-methyl-6-(5-methyl-1H-pyrazol-4-yl)morpholine], for which the half-maximal inhibitory concentration (IC50) in experiment [1] is under 500 nM; against GCN2 kinase, under 10 nM.
The corresponding values for `FC(F)(F)c1ccc2ncc(-c3nccc(N4CCN[C@H](c5cn[nH]c5)C4)n3)n2c1` [I-532, (R)-3-(4-(3-(1H-pyrazol-4-yl)piperazin-1-yl)pyrimidin-2-yl)-6-(trifluoromethyl)imidazo[1,2-a]pyridine] are 500 to 5000 nM and 10 to 100 nM.
The corresponding values for `Cc1[nH]ncc1[C@@H]1[C@@H](C)N(c2ccnc(-c3cnc4ccc(C(F)(F)F)cn34)n2)CCN1C1COC1` [I-368] are 500 to 5000 nM and 100 to 1000 nM.
With `FC(F)c1ccc2ncc(-c3nccc(N4CCOC(c5cn[nH]c5)C4)n3)n2c1` (stereo not shown) [I-15, 4-[2-[6-(Difluoromethyl)imidazo[1,2-a]pyridin-3-yl]pyrimidin-4-yl]-2-(1H-pyrazol-4-yl)morpholine], the concentration for half-maximal inhibition (IC50) in experiment [1] was under 500 nM. The same compound registered a Ki at GCN2 kinase of under 10 nM.
Regarding `C[C@H](NS(C)(=O)=O)[C@H]1[C@@H](C)N(c2ccnc(-c3cnc4ccc(C(F)(F)F)cn34)n2)CCN1C1CC1` [I-507, N—((S)-1-((2R,3R)-1-cyclopropyl-3-methyl-4-(2-(6-(trifluoromethyl)imidazo[1,2-a]pyridin-3-yl)pyrimidin-4-yl)piperazin-2-yl)ethyl)methanesulfonamide], the IC50 was in the range of 500 to 5000 nM in experiment [1] and 100 to 1000 nM against GCN2 kinase.
On to `C[C@@H]1C[C@H](N=S(C)(C)=O)CN(c2ccnc(-c3cnc4ccc(C5CC5)cn34)n2)C1` [I-300, (((3 S,5R)-1-(2-(6-cyclopropylimidazo[1,2-a]pyridin-3-yl)pyrimidin-4-yl)-5-methylpiperidin-3-yl)imino)dimethyl-λ6-sulfanone], for which the IC50 in experiment [1] was in the range of 500 to 5000 nM; on GCN2 kinase, 10 to 100 nM.
With `FC(F)c1ccc2ncc(-c3nsc(N4CCOC(c5cn[nH]c5)C4)n3)n2c1` (stereo not shown) [I-105, 4-(3-(6-(difluoromethyl)imidazo[1,2-a]pyridin-3-yl)-1,2,4-thiadiazol-5-yl)-2-(1H-pyrazol-4-yl)morpholine], the half-maximal inhibitory concentration (IC50) in experiment [1] is over 5000 nM. This compound also showed a Ki on GCN2 kinase of 10 to 100 nM.
As for `Cc1n[nH]cc1C1CC(F)CN(c2ccnc(-c3cnc4ccc(C(F)(F)F)cn34)n2)C1` (stereo not shown) [I-357, 3-(4-(3-fluoro-5-(3-methyl-1H-pyrazol-4-yl)piperidin-1-yl)pyrimidin-2-yl)-6-(trifluoromethyl)imidazo[1,2-a]pyridine], the concentration for half-maximal inhibition (IC50) was under 500 nM in experiment [1] and 10 to 100 nM against GCN2 kinase.
Turning to `FC(F)(F)c1ccc2ncc(-c3nccc(N4CCN(Cc5cnc[nH]5)C(c5cn[nH]c5)C4)n3)n2c1` (stereo not shown) [I-385, 3-(4-(4-((1H-imidazol-5-yl)methyl)-3-(1H-pyrazol-4-yl)piperazin-1-yl)pyrimidin-2-yl)-6-(trifluoromethyl)imidazo[1,2-a]pyridine], the IC50 was 500 to 5000 nM in experiment [1] and under 10 nM on GCN2 kinase.
The like results for `c1ccc(Oc2ccc3ncc(-c4nccc(N5CCCC(c6cn[nH]c6)C5)n4)n3c2)cc1` (stereo not shown) [I-329, 2-{6-phenoxyimidazo[1,2-a]pyridin-3-yl}-4-[3-(1H-pyrazol-4-yl)piperidin-1-yl]pyrimidine] were, in that order, under 500 nM and 10 to 100 nM.
As to `Clc1ccc2ncc(-c3nccc(N4CC5CC5(c5ccccc5)C4)n3)n2c1` (stereo not shown) [I-84, 6-Chloro-3-[4-(1-phenyl-3-aza-bicyclo[3.1.0]hex-3-yl)-pyrimidin-2-yl]-imidazo[1,2-a]pyridine], the concentration for half-maximal inhibition (IC50) in experiment [1] was over 5000 nM. The compound also gave a Ki on GCN2 kinase of 100 to 1000 nM.
As for `FC(F)(F)c1ccc2ncc(-c3nccc(N4CCCC(n5ccc(C(F)(F)F)n5)C4)n3)n2c1` (stereo not shown) [I-355, 6-(trifluoromethyl)-3-(4-(3-(3-(trifluoromethyl)-1H-pyrazol-1-yl)piperidin-1-yl)pyrimidin-2-yl)imidazo[1,2-a]pyridine], the half-maximal inhibitory concentration (IC50) in experiment [1] lay within 500 to 5000 nM; on GCN2 kinase it was 100 to 1000 nM.
For `C[C@@H]1CN(c2nccc(-c3cnc4ccc(C(F)(F)F)cn34)n2)[C@H](C)C(c2cn[nH]c2)N1` (stereo partly drawn) [I-171, 3-(2-((2R,5R)-2,5-dimethyl-3-(1H-pyrazol-4-yl)piperazin-1-yl)pyrimidin-4-yl)-6-(trifluoromethyl)imidazo[1,2-a]pyridine], the IC50 in experiment [1] was under 500 nM; at GCN2 kinase, 10 to 100 nM.
